From patent US20060153913A1, “Solid formulation with improved solubility and stability, and method for producing said formulation” (priority 2004, published 2006)

Tests used:
Format in all cases: physicochemical
[1] = Stability test under humid condition at 40° C.; conditions: Immediately after Formulation
Experimental: Each of the powder formulations obtained in Example 3 was tested under heating condition at 40° C. under humid condition.

[2] = Stability test under heating condition at 80° C. (HPLC impurities, powder X-ray diffraction)
Experimental: Each of the powder formulations obtained in Example 3 was tested under heating condition at 80° C. The purity was determined by high performance liquid chromatography (measured wave length; 242 nm). The state of crystallization was estimated by powder X-ray diffraction.

[3] = Dissolution test, second method of Japanese Pharmacopoeia (paddle method); conditions: after 60 minutes; paddle method 50 rpm, 0.1 w/v % sodium lauryl sulfate solution 900 mL, 37° C.
Experimental: Dissolution test was performed following the second method of Japanese Pharmacopoeia dissolution test method (paddle method, 50 rpm) using a 0.1 w/v % deaerated sodium lauryl sulfate solution (900 mL, 37° C.). The tablets (133.00 mg/tablet; containing 5 mg of bulk drug) produced in Example 1 were put into the test solution as they were. For referential control, the bulk drug consisting crystal was put into the test solution as it was. The temperature was adjusted to 37±0.1° C.

[4] = 80° C., Open Condition, After 3 days

Question: With `CCOC(=O)C(COC(=O)Cc1ccc(NC(=O)c2ccccc2-c2ccc(C(F)(F)F)cc2)c(C(=O)N(C)C)c1)(C(=O)OCC)c1ccccc1` [MTP Inhibiting Compound, diethyl 2-(2-{3-dimethylcarbamoyl-4-[(4′-trifluoromethyl-biphenyl-2-carbonyl)-amino]-phenyl}-acetoxymethyl)-2-phenyl-malonate] as the compound, how does the “Impurities Max (%)” value [1] read?
Answer: The value was 0.11%.

Question: And the “Impurities Total (%)” value [1]?
Answer: The value was 0.40%.

Question: What about the “Impurities Max (%)” value [2, 4] of the same compound?
Answer: The value was 0.08%.

Question: What about the “Impurities Total (%)” value [2, 4] of the same compound?
Answer: Its value is 0.24%.

Question: And the “Impurities Max (%)” value ([2]; Immediately after Formulation)?
Answer: The value was 0.28%.

Question: What about the “Impurities Total (%)” value ([2]; Immediately after Formulation) of the same compound?
Answer: The value was 0.40%.

Question: What about the dissolution [3] of the same compound?
Answer: Its dissolution is “did not dissolve”.
